In brackets after ≈: the same amount, converted by molar mass. Some results are limits rather than exact numbers.

This passage reports MIC results from US9511073B2, “Aromatic amides and uses thereof” (TAXIS Pharmaceuticals, Inc., priority 2011, dated 2016).

The assay relates to Staphylococcus aureus (Isolate ID ATCC 29213). In words: Bacterial assay: MIC by broth microdilution or agar dilution (CLSI), S. aureus ATCC 29213. The class given is cell-based. The settings on record: Staphylococcus aureus, ATCC29213, read-out: S. aureus MIC (μg/mL) Activity Range, S. aureus (ATCC29213). The procedure, abridged: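 MICs by CLSI broth microdilution or agar dilution against S. aureus ATCC 29213 and its FtsZ-G196A mutant. Values reported as ranges: A ≤0.25 μg/mL, B >0.25–1.0, C >1.0–16, D >16 μg/mL.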
Background: Broth dilution looks for growth in wells or tubes with falling amounts of substance.
As to `COc1cccc(-c2nc(C(CO)Oc3ccc(F)c(C(N)=O)c3F)oc2Br)c1` (centres unmarked) [Compound 117, 3-(1-(5-bromo-4-(3-methoxyphenyl)oxazol-2-yl)-2-hydroxyethoxy)-2,6-difluorobenzamide], the MIC was more than 16 µg/mL.

For the compound `NC(=O)c1c(F)ccc(OC(CO)c2nc(-c3cccc(O)c3)c(Br)o2)c1F` (centres unmarked) [Compound 118, 3-(1-(5-bromo-4-(3-hydroxyphenyl)oxazol-2-yl)-2-hydroxyethoxy)-2,6-difluorobenzamide], the MIC is more than 16 µg/mL.

With `CCOC(=O)C(CC(Oc1ccc(F)c(C(N)=O)c1F)c1nc(-c2ccc(C(F)(F)F)cc2)c(Br)o1)C(=O)OCC` (centres unmarked) [Compound 119, diethyl 2-(2-(5-bromo-4-(4-(trifluoromethyl)phenyl)oxazol-2-yl)-2-(3-carbamoyl-2,4-difluorophenoxy)ethyl)malonate], the MIC was more than 16 µg/mL.

Turning to `Cc1nnc(CC(Oc2ccc(F)c(C(N)=O)c2F)c2nc(-c3ccc(C(F)(F)F)cc3)c(Br)o2)o1` (centres unmarked) [Compound 120, 3-(1-(5-bromo-4-(4-(trifluoromethyl)phenyl)oxazol-2-yl)-2-(5-methyl-1,3,4-oxadiazol-2-yl)ethoxy)-2,6-difluorobenzamide], the MIC is 1 to 16 µg/mL (≈ 1.74 to 27.9 µM).

`CCC(Oc1ccc(F)c(C(N)=O)c1F)c1nc(CCOC(C)=O)oc1Br` (centres unmarked) [Compound 121, 2-(5-bromo-4-(1-(3-carbamoyl-2,4-difluorophenoxy)propyl)oxazol-2-yl)ethyl acetate]: the MIC was more than 16 µg/mL.

With `CCC(Oc1ccc(F)c(C(N)=O)c1F)c1nc(CCO)oc1Br` (centres unmarked) [Compound 122, 3-(1-(5-bromo-2-(2-hydroxyethyl)oxazol-4-yl)propoxy)-2,6-difluorobenzamide], the MIC is more than 16 µg/mL.

As to `CC(Oc1ccc(F)c(C(N)=O)c1F)c1nc(Br)c(-c2ccc(C(F)(F)F)cc2)o1` (centres unmarked) [Compound 123], the MIC was 1 to 16 µg/mL (≈ 2.04 to 32.6 µM).

With `C=CCCC(Oc1ccc(F)c(C(N)=O)c1F)c1nc(-c2ccc(C(F)(F)F)cc2)c(Br)o1` (centres unmarked) [Compound 124, 3-((1-(5-bromo-4-(4-(trifluoromethyl)phenyl)oxazol-2-yl)pent-4-en-1-yl)oxy)-2,6-difluorobenzamide], the MIC was in the range of 1 to 16 µg/mL (≈ 1.88 to 30.1 µM).

Take `CCOC(=O)C(Oc1ccc(F)c(C(N)=O)c1F)c1csc(-c2ccc(C(F)(F)F)cc2)n1` (centres unmarked) [Compound 125, ethyl 2-(3-carbamoyl-2,4-difluorophenoxy)-2-(2-(4-(trifluoromethyl)phenyl)thiazol-4-yl)acetate]: the MIC fell in the range of 0.25 to 1 µg/mL (≈ 0.514 to 2.06 µM).

`NC(=O)c1c(F)ccc(OC(CO)c2csc(-c3ccc(C(F)(F)F)cc3)n2)c1F` (centres unmarked) [Compound 126, 2,6-difluoro-3-(2-hydroxy-1-(2-(4-(trifluoromethyl)phenyl)thiazol-4-yl)ethoxy)benzamide]: the MIC is 1 to 16 µg/mL (≈ 2.25 to 36 µM).

Turning to `NC(=O)c1c(F)ccc(OC(C(=O)O)c2csc(-c3ccc(C(F)(F)F)cc3)n2)c1F` (centres unmarked) [Compound 127, 2-(3-carbamoyl-2,4-difluorophenoxy)-2-(2-(4-(trifluoromethyl)phenyl)thiazol-4-yl)acetic acid], the MIC was more than 16 µg/mL.

With `CCOC(=O)C(Oc1ccc(F)c(C(N)=O)c1F)c1coc(-c2ccc(C(F)(F)F)cc2)n1` (centres unmarked) [Compound 129, ethyl 2-(3-carbamoyl-2,4-difluorophenoxy)-2-(2-(4-(trifluoromethyl)phenyl)oxazol-4-yl)acetate], the MIC lay in the range of 1 to 16 µg/mL (≈ 2.13 to 34 µM).

In the case of `CC(=O)OCC(Oc1ccc(F)c(C(N)=O)c1F)c1nc(-c2ccc(C(F)(F)F)cc2)sc1Br` (centres unmarked) [Compound 130, 2-(5-bromo-2-(4-(trifluoromethyl)phenyl)thiazol-4-yl)-2-(3-carbamoyl-2,4-difluorophenoxy)ethyl acetate], the MIC was more than 16 µg/mL.

Regarding `NC(=O)c1c(F)ccc(OC(CO)c2nc(-c3ccc(C(F)(F)F)cc3)sc2Br)c1F` (centres unmarked) [Compound 131, 3-(1-(5-bromo-2-(4-(trifluoromethyl)phenyl)thiazol-4-yl)-2-hydroxyethoxy)-2,6-difluorobenzamide], the MIC is more than 16 µg/mL.
